Biological target: T1, LATS2 (Homo sapiens, UniProt Q9NRM7)
T1 construct: purchased Carna Biosciences
T1 sequence (Q9NRM7 1-1088): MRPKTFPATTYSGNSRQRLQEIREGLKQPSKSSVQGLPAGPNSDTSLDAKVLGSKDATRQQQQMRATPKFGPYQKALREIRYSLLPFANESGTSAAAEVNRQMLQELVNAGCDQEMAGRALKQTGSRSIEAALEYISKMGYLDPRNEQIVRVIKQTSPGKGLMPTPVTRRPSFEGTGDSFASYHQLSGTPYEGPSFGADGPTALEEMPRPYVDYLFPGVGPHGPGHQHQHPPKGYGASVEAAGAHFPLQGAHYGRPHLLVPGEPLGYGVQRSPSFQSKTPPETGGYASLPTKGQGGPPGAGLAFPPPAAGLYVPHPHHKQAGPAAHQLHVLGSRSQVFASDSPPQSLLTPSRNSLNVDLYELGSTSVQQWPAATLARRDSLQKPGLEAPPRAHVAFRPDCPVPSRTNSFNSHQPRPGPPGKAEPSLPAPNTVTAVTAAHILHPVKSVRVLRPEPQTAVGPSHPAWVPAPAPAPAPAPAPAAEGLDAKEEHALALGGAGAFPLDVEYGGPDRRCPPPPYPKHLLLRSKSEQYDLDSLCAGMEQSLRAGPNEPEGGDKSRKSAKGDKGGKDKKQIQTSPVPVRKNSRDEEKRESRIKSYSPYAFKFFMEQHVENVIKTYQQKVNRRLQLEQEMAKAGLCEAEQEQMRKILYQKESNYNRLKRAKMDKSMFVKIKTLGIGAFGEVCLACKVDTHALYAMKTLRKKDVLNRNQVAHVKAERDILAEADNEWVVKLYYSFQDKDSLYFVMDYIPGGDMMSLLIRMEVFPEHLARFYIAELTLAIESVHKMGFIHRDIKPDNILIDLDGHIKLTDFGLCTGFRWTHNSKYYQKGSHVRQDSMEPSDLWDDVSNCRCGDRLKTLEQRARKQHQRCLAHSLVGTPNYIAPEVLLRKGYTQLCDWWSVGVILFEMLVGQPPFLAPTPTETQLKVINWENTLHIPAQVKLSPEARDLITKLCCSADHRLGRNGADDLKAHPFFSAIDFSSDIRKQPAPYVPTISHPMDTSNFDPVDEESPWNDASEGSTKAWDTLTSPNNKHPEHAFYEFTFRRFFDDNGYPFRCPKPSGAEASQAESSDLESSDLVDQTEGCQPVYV
Assay: Kinase inhibitory activity against LATS2 (ADP quantification)
Assay type: biochemical
Conditions: ATP 400 μM, read-out: kinase inhibitory rate
Description: Evaluation of the inhibitory activity (calculation of kinase inhibitory rate) of the compound of the present invention against LATS1 and LATS2 (manufactured by Carna Biosciences) was performed. The activity was measured using the Kinase Assay method described below. The test concentration of the compound of the present invention was set such that the final concentration was 100 nM or 1000 nM.
As the analysis method of the data, the mean signal of the control well containing reaction components other than the compound of the present invention was set to 0% inhibition, the mean signal without enzyme addition was set to 100% inhibition, and the inhibition rate was calculated from the mean signal of 2 wells of each compound.
2 μL of a compound of the present invention solution at 2.5-fold concentration, 1 μL of substrate at 5-fold concentration (SGKtide: NH2-CKKRNRRLSVA-COOH, manufactured by SignalChem), ATP (manufactured by Sigma-Aldrich), MgCl2 (manufactured by FUJIFILM Wako Pure Chemical Corporation) solution (final concentration 10 μM, 400 μM and 5 mM, respectively), and 2 μL of kinase solution at 2.5-fold concentration (final concentration of LATS1 or LATS2 5 μg/mL), each prepared with assay buffer (20 mM HEPES, 0.01% Triton X-100, 2 mM DTT, 50 μg/mL BSA, pH 7.5), were mixed in the wells of a polypropylene 384-well plate (manufactured by Greiner Bio-One, #784900) and reacted at room temperature for 5 hr. To the solution was added 5 μL detection solution [Fluorospark (registered trade mark) Kinase/ADP Multi-Assay Kit; manufactured by FUJIFILM Wako Pure Chemical Corporation], and the mixture was reacted at room temperature for 30 min. Successively, 5 μL of a reaction quenching liquid [Fluorospark (registered trade mark) Kinase/ADP Multi-Assay Kit; manufactured by FUJIFILM Wako Pure Chemical Corporation] was added to discontinue the reaction. Thereafter, the ADP concentration of the reaction solution was quantified by EnSpire (manufactured by PerkinElmer) to detect the kinase reaction.

inhibition at 0.1 µM (final concentration 100 nM): ≥ 40%
inhibition at 1 µM (final concentration 1000 nM): ≥ 40%
SMILES: CC/C(=N\NC(=O)C(C)Nc1cccnc1)c1ccc(O)c(C)c1O (centres unmarked) [A-004, (E)-N′-(1-(2,4-dihydroxy-3-methylphenyl)propylidene)-2-(pyridin-3-ylamino)propanehydrazide]
